From patent US6355799B1, “Substituted benzene compounds, process for their preparation, and herbicidal and defoliant compositions containing them” (ISK Americas Incorporated, priority 1997, dated 2002)

Experiments:
Format in all cases: in vivo
[1] = test system: redroot pigweed (Amaranthus retroflexus, AMARE); assay: Pre-emerge test, greenhouse herbicide activity screening; conditions: rated 14 days after application, 0 = no damage, 100 = complete death
In short: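 Plants grown in 10 cm pots of sandy loam mix received acetone-dissolved compounds through a moving flat-fan nozzle. Doses ranged from 15 to 1000 g ai/ha. Pre-emerge pots were seeded one day earlier, post-emerge pots 8–21 days earlier. Fourteen days on, each pot was graded 0–100 for damage.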

[2] = test system: barnyardgrass (Echinochloa crus-galli, ECHCG); assay: as above; conditions: rated 14 days after application, 0 = no damage, 100 = complete death
In short: (§1)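 Herbicidal damage is scored 0 (none) to 100 (complete plant death) two weeks after a simulated field spray. Rates span 15–1000 g ai/ha, delivered in acetone at 187 l/ha. For post-emergence treatments, plants have 2–3 leaves and the spray carries 0.25% v/v non-ionic surfactant.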

[3] = test system: common ragweed (Ambrosia artemisizfolia L., AMBEL); assay: as above; conditions: rated 14 days after application, 0 = no damage, 100 = complete death
In short: as §1

[4] = test system: green foxtail (Setaria viridis, SETVI); assay: as above; conditions: rated 14 days after application, 0 = no damage, 100 = complete death
In short: as §1

[5] = test system: ivyleaf morningglory (Ipomoea hederacea, IPOHE); assay: as above; conditions: rated 14 days after application, 0 = no damage, 100 = complete death
In short: as §1

[6] = test system: johnsongrass (Sorghum halepense, SORHA); assay: as above; conditions: rated 14 days after application, 0 = no damage, 100 = complete death
In short: as §1

[7] = test system: lambsquarters (Chenopodium album, CHEAL); assay: as above; conditions: rated 14 days after application, 0 = no damage, 100 = complete death
In short: as §1

[8] = test system: large crabgrass (Digitaria sanguinalis, DIGSA); assay: as above; conditions: rated 14 days after application, 0 = no damage, 100 = complete death
In short: as §1

[9] = test system: sicklepod (Cassia obtusifolia, CASOB); assay: as above; conditions: rated 14 days after application, 0 = no damage, 100 = complete death
In short: as §1

[10] = test system: velvetleaf (Abutilon theophrasti, ABUTH); assay: as above; conditions: rated 14 days after application, 0 = no damage, 100 = complete death
In short: as §1

[11] = test system: field corn (Zea mays L., var. Dekalb 535, CORN); assay: Pre-emerge test, crop safety; conditions: rated 14 days after application, 0 = no damage, 100 = complete death
In short: (§2)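 Fourteen days after spraying, crop and weed injury was graded visually from 0, no effect, to 100, every plant dead. Test substances were dissolved in acetone and applied at 15–1000 g ai/ha with a flat-fan nozzle. Application was either pre-emergence, one day after sowing, or post-emergence at the 2–3 leaf stage.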

[12] = test system: upland rice (Oryza sp., var. Tebonnet, RICE); assay: Pre-emerge test, crop safety; conditions: rated 14 days after application, 0 = no damage, 100 = complete death
In short: as §2

[13] = test system: barnyardgrass (Echinochloa crus-galli, ECHCG); assay: Post-emerge test, greenhouse herbicide activity screening; conditions: post-emerge, 14 days after application, rating scale 0-100
In short: (§3)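 Compounds in acetone were track-sprayed at 187 l/ha, 15–1000 g ai/ha, onto sandy loam pots. Pre-emerge seeds were sown one day before spraying, with surface watering afterwards. Post-emerge plants were at the 2–3 leaf stage and sprayed with 0.25% v/v non-ionic surfactant. Injury was rated 0–100 at 14 days.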

[14] = test system: common ragweed (Ambrosia artemisizfolia L., AMBEL); assay: as above; conditions: post-emerge, 14 days after application, rating scale 0-100
In short: as §3

[15] = test system: green foxtail (Setaria viridis, SETVI); assay: as above; conditions: post-emerge, 14 days after application, rating scale 0-100
In short: as §3

[16] = test system: ivyleaf morningglory (Ipomoea hederacea, IPOHE); assay: as above; conditions: post-emerge, 14 days after application, rating scale 0-100
In short: as §3

[17] = test system: johnsongrass (Sorghum halepense, SORHA); assay: as above; conditions: post-emerge, 14 days after application, rating scale 0-100
In short: as §3

[18] = test system: lambsquarters (Chenopodium album, CHEAL); assay: as above; conditions: post-emerge, 14 days after application, rating scale 0-100
In short: as §3

[19] = test system: large crabgrass (Digitaria sanguinalis, DIGSA); assay: as above; conditions: post-emerge, 14 days after application, rating scale 0-100
In short: as §3

[20] = test system: redroot pigweed (Amaranthus retroflexus, AMARE); assay: as above; conditions: post-emerge, 14 days after application, rating scale 0-100
In short: as §3

[21] = test system: sicklepod (Cassia obtusifolia, CASOB); assay: as above; conditions: post-emerge, 14 days after application, rating scale 0-100
In short: as §3

[22] = test system: velvetleaf (Abutilon theophrasti, ABUTH); assay: as above; conditions: post-emerge, 14 days after application, rating scale 0-100
In short: as §3

[23] = test system: field corn (Zea mays L., var. Dekalb 535, CORN); assay: Post-emerge test, crop safety; conditions: post-emerge, 14 days after application, rating scale 0-100
In short: as §1

[24] = test system: upland rice (Oryza sp., var. Tebonnet, RICE); assay: Post-emerge test, crop safety; conditions: post-emerge, 14 days after application, rating scale 0-100
In short: as §1

COc1c(Cl)cc(F)c(-n2c(=O)cc(C(F)(F)F)n(C)c2=O)c1NC(=O)c1ccc(C#N)cc1 [2-67]
99: Pre-emerge phytotoxicity rating (0-100), crop damage, CORN ([11]; 250 g ai/ha) | phytotoxicity rating IPOHE ([16]; 63 g ai/ha)
80: Pre-emerge Herbicidal Activity, phytotoxicity rating (0-100), SORHA ([6]; 63 g ai/ha) | phytotoxicity rating SORHA ([17]; 250 g ai/ha) | phytotoxicity rating RICE ([24]; 250 g ai/ha)
90: Pre-emerge phytotoxicity rating (0-100), crop damage, CORN ([11]; 63 g ai/ha) | Pre-emerge phytotoxicity rating (0-100), crop damage, RICE ([12]; 63 g ai/ha) | Pre-emerge phytotoxicity rating (0-100), crop damage, RICE ([12]; 250 g ai/ha)
100: Pre-emerge Herbicidal Activity, phytotoxicity rating (0-100), AMARE ([1]; 63 g ai/ha) | Pre-emerge Herbicidal Activity, phytotoxicity rating (0-100), AMARE ([1]; 250 g ai/ha) | Pre-emerge Herbicidal Activity, phytotoxicity rating (0-100), AMBEL ([3]; 63 g ai/ha) | Pre-emerge Herbicidal Activity, phytotoxicity rating (0-100), AMBEL ([3]; 250 g ai/ha) | Pre-emerge Herbicidal Activity, phytotoxicity rating (0-100), SETVI ([4]; 63 g ai/ha) | Pre-emerge Herbicidal Activity, phytotoxicity rating (0-100), SETVI ([4]; 250 g ai/ha) | Pre-emerge Herbicidal Activity, phytotoxicity rating (0-100), IPOHE ([5]; 63 g ai/ha) | Pre-emerge Herbicidal Activity, phytotoxicity rating (0-100), IPOHE ([5]; 250 g ai/ha) | Pre-emerge Herbicidal Activity, phytotoxicity rating (0-100), SORHA ([6]; 250 g ai/ha) | Pre-emerge Herbicidal Activity, phytotoxicity rating (0-100), CHEAL ([7]; 63 g ai/ha) | Pre-emerge Herbicidal Activity, phytotoxicity rating (0-100), CHEAL ([7]; 250 g ai/ha) | Pre-emerge Herbicidal Activity, phytotoxicity rating (0-100), DIGSA ([8]; 63 g ai/ha) | Pre-emerge Herbicidal Activity, phytotoxicity rating (0-100), DIGSA ([8]; 250 g ai/ha) | Pre-emerge Herbicidal Activity, phytotoxicity rating (0-100), CASOB ([9]; 63 g ai/ha) | Pre-emerge Herbicidal Activity, phytotoxicity rating (0-100), CASOB ([9]; 250 g ai/ha) | Pre-emerge Herbicidal Activity, phytotoxicity rating (0-100), ABUTH ([10]; 63 g ai/ha) | Pre-emerge Herbicidal Activity, phytotoxicity rating (0-100), ABUTH ([10]; 250 g ai/ha) | phytotoxicity rating AMBEL ([14]; 63 g ai/ha) | phytotoxicity rating AMBEL ([14]; 250 g ai/ha) | phytotoxicity rating IPOHE ([16]; 250 g ai/ha) | phytotoxicity rating CHEAL ([18]; 63 g ai/ha) | phytotoxicity rating CHEAL ([18]; 250 g ai/ha) | phytotoxicity rating AMARE ([20]; 63 g ai/ha) | phytotoxicity rating AMARE ([20]; 250 g ai/ha) | phytotoxicity rating CASOB ([21]; 63 g ai/ha) | phytotoxicity rating CASOB ([21]; 250 g ai/ha) | phytotoxicity rating ABUTH ([22]; 63 g ai/ha) | phytotoxicity rating ABUTH ([22]; 250 g ai/ha)
0: phytotoxicity rating ECHCG ([13]; 63 g ai/ha) | phytotoxicity rating SORHA ([17]; 63 g ai/ha) | phytotoxicity rating DIGSA ([19]; 63 g ai/ha)
95: Pre-emerge Herbicidal Activity, phytotoxicity rating (0-100), ECHCG ([2]; 250 g ai/ha) | phytotoxicity rating CORN ([23]; 250 g ai/ha)
20: phytotoxicity rating SETVI ([15]; 63 g ai/ha) | phytotoxicity rating CORN ([23]; 63 g ai/ha)
50: Pre-emerge Herbicidal Activity, phytotoxicity rating (0-100), ECHCG ([2]; 63 g ai/ha)
30: phytotoxicity rating SETVI ([15]; 250 g ai/ha)
70: phytotoxicity rating RICE ([24]; 63 g ai/ha)
40: phytotoxicity rating ECHCG ([13]; 250 g ai/ha) | phytotoxicity rating DIGSA ([19]; 250 g ai/ha)
